Results on 5 compounds are retold here after BindingDB's records for doi:10.1016/j.bmc.2019.01.024 (2019).

As a reminder, the IC50 is the concentration that inhibits the measured activity by half.

A short description of assay [1]: Inhibition of mouse GAT3 expressed in HEK293 cells assessed as reduction in [3H]GABA uptake preincubated for 25 mins followed by [3H]GABA addition and measured after 4 mins by microbeta liquid scintillation counting method.
Assay [2] is described as follows: Inhibition of mouse GAT2 expressed in HEK293 cells assessed as reduction in [3H]GABA uptake preincubated for 25 mins followed by [3H]GABA addition and measured after 10 mins by microbeta liquid scintillation counting method.
In assay [3] the target is T1, Sodium- and chloride-dependent GABA transporter 2 (Mus musculus, UniProt P31649).
T1 sequence (P31649 whole entry): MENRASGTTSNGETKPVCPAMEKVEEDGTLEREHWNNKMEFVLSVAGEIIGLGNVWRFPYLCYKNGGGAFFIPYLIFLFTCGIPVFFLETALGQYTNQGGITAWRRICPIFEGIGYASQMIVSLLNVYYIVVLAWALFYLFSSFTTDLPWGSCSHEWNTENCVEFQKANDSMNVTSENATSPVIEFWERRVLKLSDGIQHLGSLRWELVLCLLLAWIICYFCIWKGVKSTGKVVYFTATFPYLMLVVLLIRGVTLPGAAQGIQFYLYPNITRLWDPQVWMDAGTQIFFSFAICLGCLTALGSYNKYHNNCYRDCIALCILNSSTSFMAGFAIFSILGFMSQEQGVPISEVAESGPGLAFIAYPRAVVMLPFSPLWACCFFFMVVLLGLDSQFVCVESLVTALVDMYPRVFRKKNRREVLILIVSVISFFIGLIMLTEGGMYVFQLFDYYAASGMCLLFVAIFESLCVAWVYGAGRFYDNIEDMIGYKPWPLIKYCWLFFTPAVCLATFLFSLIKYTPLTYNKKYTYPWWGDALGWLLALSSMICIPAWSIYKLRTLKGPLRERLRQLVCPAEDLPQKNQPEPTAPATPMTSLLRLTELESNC
The assay is described as follows: Inhibition of mouse GAT2 expressed in HEK293 cells assessed as reduction in [3H]GABA uptake preincubated for 25 mins followed by [3H]GABA addition and measured after 10 mins by microbeta liquid scintillation counting method.

Consider `COc1ccc(C(/C=C\CN2CCCC(C(=O)O)C2)(c2ccc(OC)cc2)c2ccc3c(c2)OCO3)cc1` (stereo unspecified), for which the IC50 was found to be 45.7 µM in assay [1] and 61.7 µM in assay [2].

With `COc1ccc(C(/C=C\CN2CCCC(C(=O)O)C2)(Cc2ccccc2)c2ccc(OC)cc2)cc1` (stereo unspecified), the IC50 in assay [3] stood at 30.2 µM.

On to `COc1ccc(C(C/C=C\CN2CCCC(C(=O)O)C2)(c2ccc(OC)cc2)c2ccc(OC)cc2)cc1` (stereo unspecified), for which, in assay [1], the IC50 was 85.1 µM.

As for `O=C(O)C1CCCN(CC/C=C\C(c2ccccc2)(c2ccccc2)c2ccccc2)C1` (stereo unspecified), in assay [2], the IC50 was 55 µM.

Turning to `COc1ccc(C(/C=C\CN2CCCC(C(=O)O)C2)(c2ccc(OC)cc2)c2ccsc2)cc1` (stereo unspecified), in assay [2], the IC50 came out at 89.1 µM.
